Source: article PMC3541007 (ChemMedChem, 2009)
pIC50, pKi: −log10 of the molar value. Values after ≈ are worked out from the molar mass of the structure shown. Values joined by “and” are separate entries in the source; they are usually repeats but may differ in a detail not shown here. Equal entries are not always repeated. Where two headings read alike, the source gives them in different places.

Assays:
M. tuberculosis H37Rv = format: cell-based; conditions: wild-type, INH-sensitive, four weeks
[1] = test system: M. tuberculosis H37Rv PmabAinhA (C-15T); format: cell-based; conditions: for MIC H37Rv PmabAinhA (C-15T): four weeks
[2] = test system: M. tuberculosis H37Rv ΔkatG; format: cell-based, Mycobacterium tuberculosis
InhA [3] = conditions: read-out: Ki against InhA; cited from earlier work
H37Rv = conditions: cited from earlier work
InhA [4] = conditions: read-out: InhA IC50; cited from earlier work

5-n-butyltriclosan [Compound 10]
MIC H37Rv (M. tuberculosis H37Rv): 9.4 µg/mL | MIC H37Rv (M. tuberculosis H37Rv; value in parentheses): 30 µM | MIC H37Rv PmabAinhA (C-15T) [1]: 37 µg/mL | MIC H37Rv PmabAinhA (C-15T) ([1]; value in parentheses): 120 µM | MIC H37Rv ΔkatG [2]: 19 (60) µg/ml and 19 (60) µM

NNC(=O)c1ccncc1 [INH, isoniazid]
fold loss in potency versus InhA(C-15T) strain compared to wild-type ([1]; MIC ratio vs wild-type strain): 13 fold | MIC H37Rv ΔkatG [2]: >200 (>1400) µg/ml and >200 (>1400) µM

NC(=O)C1=CN([C@@H]2O[C@H](COP(=O)(O)OP(=O)(O)OC[C@H]3O[C@@H](n4cnc5c(N)ncnc54)[C@H](O)[C@@H]3O)[C@@H](O)[C@H]2O)C=C[C@@H]1C(=O)c1ccncc1 [INH-NAD]
pKi (InhA [3]): 8.30

CCCCCCCCc1ccc(Oc2ccccc2)c(O)c1 [Sullivan’s n-octyl analog]
MIC vs. H37Rv (H37Rv; des-chloro analogs of Sullivan): 6.5 µM (≈ 1.94 µg/mL) | pIC50 (InhA [4]): 8.30

CCc1cc(C(N)=S)ccn1 [ethionamide]
MIC (H37Rv): 18 µM (≈ 2.99 µg/mL)
